This note sets out measurements from ChEMBL document CHEMBL1255369, “In vitro susceptibility of isolates of Francisella tularensis types A and B from North America” (2008).

Values after ≈ are worked out from the molar mass of the structure shown.

Common to all, as to type: functional
The nature of assay [1]: (§1) Antimicrobial activity against Francisella tularensis subsp. holarctica after 48 hrs by broth microdilution method. Background: Dilution methods test growth across graded concentrations, often in twofold steps.
Assay [2] can be described thus: Antimicrobial activity against Francisella tularensis subsp. holarctica LVS after 48 hrs by broth microdilution method.
Assay [3] can be described thus: (§2) Antimicrobial activity against Francisella tularensis subsp. tularensis after 48 hrs by broth microdilution method.
Assay [4] concerns Francisella tularensis subsp. holarctica. The description is as §1.
For assay [5], the system named is Francisella tularensis subsp. tularensis. The assay is described as §2.

The MIC50 is an inhibitory concentration at the 50% level, which refers to growth in some studies and to a panel of isolates in others. The term MIC90 denotes the lowest concentration that inhibits either 90% of growth or 90% of the strains tested, depending on the study. High values mean lower susceptibility, low ones higher susceptibility. Usually MIC stands for the least concentration at which growth counts as inhibited. A higher MIC goes with weaker potency.

Regarding `CC[C@H]1OC(=O)[C@H](C)[C@@H](O[C@H]2C[C@@](C)(OC)[C@@H](O)[C@H](C)O2)[C@H](C)[C@@H](O[C@@H]2O[C@H](C)C[C@H](N(C)C)[C@H]2O)[C@](C)(O)C[C@@H](C)C(=O)[C@H](C)[C@@H](O)[C@]1(C)O` [ERYTHROMYCIN], the MIC50 in assay [1] is 2 mg/L (≈ 2.73 µM); in assay [3], 0.5 mg/L (≈ 0.681 µM). The MIC90 worked out at 2 mg/L (≈ 2.73 µM) in assay [1] and 0.5 mg/L (≈ 0.681 µM) in assay [3]. Further, the MIC in assay [2] is over 256 mg/L; in assay [3] it was 0.5 mg/L (≈ 0.681 µM).
In assay [1], `CN[C@@H]1[C@H](O[C@H]2[C@H](O[C@H]3[C@H](O)[C@@H](O)[C@H](N=C(N)N)[C@@H](O)[C@@H]3N=C(N)N)O[C@@H](C)[C@]2(O)C=O)O[C@@H](CO)[C@H](O)[C@H]1O` [STREPTOMYCIN] showed an MIC50 of 1 mg/L (≈ 1.72 µM) and an MIC90 of 2 mg/L (≈ 3.44 µM). In assay [3], this compound returned an MIC50 of 1 mg/L (≈ 1.72 µM) and an MIC90 of 2 mg/L (≈ 3.44 µM).
In assay [4], GENTAMICIN registered an MIC50 of 0.12 mg/L and an MIC90 of 0.25 mg/L. In addition, in assay [5], the MIC50 amounted to 0.06 mg/L and the MIC90 was 0.12 mg/L.
Regarding `O=C(O)c1cn(C2CC2)c2cc(N3CCNCC3)c(F)cc2c1=O` [CIPROFLOXACIN], the MIC50 was found to be 0.03 mg/L (≈ 0.0905 µM) in assay [1] and 0.015 mg/L (≈ 0.0453 µM) in assay [3]. The MIC90 in assay [1] amounted to 0.06 mg/L (≈ 0.181 µM); in assay [3], 0.03 mg/L (≈ 0.0905 µM).
Take `O=C(N[C@H](CO)[C@H](O)c1ccc([N+](=O)[O-])cc1)C(Cl)Cl` [CHLORAMPHENICOL]: the results for the MIC50 in assay [1] and in assay [3] were 2 mg/L (≈ 6.19 µM) and 1 mg/L (≈ 3.09 µM), respectively. Also, the MIC90 in assay [1] and in assay [3] was 2 mg/L (≈ 6.19 µM) in each case.
For the compound `C[C@H]1COc2c(N3CCN(C)CC3)c(F)cc3c(=O)c(C(=O)O)cn1c23.C[C@H]1COc2c(N3CCN(C)CC3)c(F)cc3c(=O)c(C(=O)O)cn1c23.O` [LEVOFLOXACIN], in assay [1], the MIC50 was determined as 0.03 mg/L and the MIC90 came out at 0.06 mg/L. In assay [3], this compound registered an MIC50 of 0.03 mg/L and an MIC90 of 0.06 mg/L.
Consider `C[C@H]1c2cccc(O)c2C(=O)C2=C(O)[C@]3(O)C(=O)C(C(N)=O)=C(O)[C@@H](N(C)C)[C@@H]3[C@@H](O)[C@@H]21.O` [DOXYCYCLINE], for which the MIC50 stood at 1 mg/L in assay [1] and 0.5 mg/L in assay [3]. Also, the figures for the MIC90 in assay [1] and in assay [3] were 2 mg/L and 1 mg/L, respectively.
In assay [1], `CN(C)[C@@H]1C(O)=C(C(N)=O)C(=O)[C@@]2(O)C(O)=C3C(=O)c4c(O)cccc4[C@@](C)(O)[C@H]3C[C@@H]12` [TETRACYCLINE] yielded an MIC50 of 0.5 mg/L (≈ 1.13 µM) and an MIC90 of 1 mg/L (≈ 2.25 µM). In assay [3], this compound gave an MIC50 of 0.5 mg/L (≈ 1.13 µM) and an MIC90 of 1 mg/L (≈ 2.25 µM).
